The nature of series [1]: Intrinsic Dissolution Rate (IDR) test, USP apparatus 2 (paddles). The series is classed as physicochemical. As to conditions: for Ratio: IDR of co-crystal relative to agomelatine; for IDR: 37°C, 100 rpm, 2 hours, calculated from slope of straight line. The text has this:
The aim of this study was to measure intrinsic dissolution rate (IDR) of some crystalline forms of the present invention in order to compare them with the IDR of the agomelatine. Intrinsic dissolution rate is defined as the dissolution rate of pure substance under the condition of constant surface area.
Figures 20 and 21 show the results of intrinsic dissolution rate performed with co-crystals obtained in examples 4 and 5. The IDR behaviour of agomelatine and the co-crystal of agomelatine - gentisic acid (1:1), agomelatine - citric acid (1:1) from the present invention was tested in USP apparatus 2 (paddles) at 37°C and 100 rpm with 2 hours in a solution of 0,1 N HCl (figure 20) and 2 hours in a buffer solution at pH 6.8 (figure 21). The intrinsic dissolution rate was calculated from the slope of the straight line obtained.

For series [2] the following is noted: cited from earlier work.
Series [3] has as its system α, β adrenergic, histaminergic, cholinergic, dopaminergic and benzodiazepine receptors. As to conditions: cited from earlier work.
The subject of series [4] is monoamine uptake. As to conditions: cited from earlier work.

As for `COc1ccc2cccc(CCNC(C)=O)c2c1` [agomelatine - gentisic acid (1:1) co-crystal], in series [1] (Media Buffer pH 6.8), the Ratio was found to be 1.70 and the IDR was 0.0453 mg/cm^2·s. Besides, in series [1] (Media HCl 0.1M), the Ratio turned out to be 1.28 and the IDR is listed as 0.0447 mg/cm^2·s.
For the compound `COc1ccc2cccc(CCNC(C)=O)c2c1` [agomelatine, N-[2-(7-methoxynaphthalen-1-yl)ethyl]acetamide], the “solubility in various organic solvents” value in series [2] (96% ethanol, methanol, methylene chloride, freely soluble) is more than 100 mg/mL. In series [2] (purified water, practically insoluble), the “solubility in purified water” value is < 0,1 mg/ml. In addition, the values for the IDR in series [1] (Media Buffer pH 6.8) and in series [1] (Media HCl 0.1M) were 0.0267 mg/cm^2·s and 0.0349 mg/cm^2·s, respectively. Moreover, in series [3], the affinity entry is listed as “no affinity”. For the same compound, the “effect on monoamine uptake” value in series [4] is recorded as “no effect”.
Take `COc1ccc2cccc(CCNC(C)=O)c2c1` [agomelatine-citric acid (1:1) co-crystal]: the Ratio was 1.76 in series [1] (Media Buffer pH 6.8) and 1.92 in series [1] (Media HCl 0.1M). Further, the values for the IDR in series [1] (Media Buffer pH 6.8) and in series [1] (Media HCl 0.1M) were 0.0470 mg/cm^2·s and 0.0670 mg/cm^2·s, respectively.

Source of the values: patent EP2551257A1, “Co-crystals of agomelatine with co-crystal-formers” (Laboratorios del. Dr. Esteve, S.A., priority 2011, dated 2013).
